# Reference: ChEMBL document CHEMBL1131950, “Reversal of P-glycoprotein mediated multidrug resistance by novel anthranilamide derivatives” (Bioorg Med Chem Lett, 1999)
# Assays:
# [1] = system: EMT6; experiment: Reversal effect on the accumulation of [3H]- daunorubicin in mouse mammary carcinoma cell line EMT6/AR 1.0; assay type: functional, cell-based
# [2] = system: MDR; experiment: Potency tested against multidrug resistance (MDR) cell lines expressing P-gp (P-glycoprotein); assay type: functional, cell-based
Structure (SMILES),IC50 ([1]; read-out: IC50) [µM],EC50 [2] [µM],IC50 [1] [µM]
COc1cc2c(cc1OC)CN(CCNC(=O)c1ccccc1NC(=O)c1ccc(C3CCCCC3)cc1)CC2,1.6,–,–
COc1cc2c(cc1OC)CN(CCc1ccc(NC(=O)c3cc(N(C)C)ccc3NC(=O)c3cnc4ccccc4c3)cc1)CC2,0.293,–,–
COc1cc2c(cc1OC)CN(CCNC(=O)c1ccccc1NC(=O)c1ccc(N(C)C)cc1)CC2,2.4,–,–
COc1cc2c(cc1OC)CN(CCc1ccc(NC(=O)c3ccccc3NC(=O)c3ccoc3)cc1)CC2,0.92,–,–
COc1cc2c(cc1OC)CN(CCc1ccc(NC(=O)c3ccccc3Oc3ccccc3)cc1)CC2,2.7,–,–
COc1cc2c(cc1OC)CN(CCc1ccc(NC(=O)c3ccccc3Sc3ccccc3)cc1)CC2,2.3,–,–
COc1cc2c(cc1OC)CN(CCc1ccc(NC(=O)c3ccccc3NC(=O)c3cccnc3)cc1)CC2,0.88,–,–
COc1cc2c(cc1OC)CN(CCc1ccc(NC(=O)c3cc(C)ccc3NC(=O)c3cnc4ccccc4c3)cc1)CC2,0.22,–,–
COc1cc2c(cc1OC)CN(CCc1ccc(NC(=O)c3cc(OC)c(OC)cc3NC(=O)c3cnc4ccccc4c3)cc1)CC2 [TARIQUIDAR],–,0.0163,0.038
COc1cc2c(cc1OC)CN(CCc1ccc(NC(=O)c3ccccc3NC(=O)c3ccc4ccccc4n3)cc1)CC2,0.79,–,–
COc1cc2c(cc1OC)CN(CCc1ccc(NC(=O)c3ccccc3NC(=O)c3ccccn3)cc1)CC2,0.68,–,–
COc1cc2c(cc1OC)CN(CCc1ccc(NC(=O)c3ccccc3NC(=O)c3ccco3)cc1)CC2,3.3,–,–
COc1cc2c(cc1OC)CN(CCc1ccc(NC(=O)c3ccccc3-c3ccccc3)cc1)CC2,1.7,–,–
COc1cc2c(cc1OC)CN(CCc1ccc(NC(=O)c3ccccc3NC(=O)c3ccc(C(C)C)cc3)cc1)CC2,0.85,–,–
COc1cc2c(cc1OC)CN(CCc1ccc(NC(=O)c3ccccc3NC(=O)c3cc4ccccc4cn3)cc1)CC2,4.9,–,–
COc1cc2c(cc1OC)CN(CCc1ccc(NC(=O)c3ccccc3NC(=O)c3ccsc3)cc1)CC2,0.73,–,–
COc1cc2c(cc1OC)CN(CCc1ccc(NC(=O)c3cccc(/C=c4\[nH]c(=O)/c(=C/c5ccccc5)n(C)c4=O)c3)cc1)CC2,0.22,–,–
COc1cc2c(cc1OC)CN(CCNC(=O)c1ccccc1NC(=O)c1ccccc1)CC2,6.8,–,–
COc1cc2c(cc1OC)CN(CCc1ccc(NC(=O)c3ccccc3C(=O)c3ccccc3)cc1)CC2,1.1,–,–
COc1cc2c(cc1OC)CN(CCNC(=O)c1ccccc1NC(=O)c1ccc(C(C)C)cc1)CC2,1.1,–,–
COc1ccc(CCn2c(-c3ccc(N(C)C)cc3)nc3ccccc3c2=O)cc1OC,5,–,–
COc1cc2c(cc1OC)CN(CCc1ccc(NC(=O)c3ccccc3NC(=O)c3ccccc3)cc1)CC2,0.25,–,–

# Second part, the compound after the results:
IC50 ([1]; read-out: IC50) [µM],EC50 [2] [µM],IC50 [1] [µM],Structure (SMILES)
0.038,–,–,COc1cc2c(cc1OC)CN(CCc1ccc(NC(=O)c3ccc(F)cc3NC(=O)c3cnc4ccccc4c3)cc1)CC2
0.204,–,–,COc1cc2c(cc1OC)CN(CCc1ccc(NC(=O)c3ccccc3NC(=O)c3cnccn3)cc1)CC2
0.092,0.019,–,COc1cc2c(cc1OC)CN(CCc1ccc(NC(=O)c3ccccc3NC(=O)c3cnc4ccccc4n3)cc1)CC2
0.067,–,–,COc1cc2c(cc1OC)CN(CCc1ccc(NC(=O)c3ccccc3NC(=O)c3cnc(C)cn3)cc1)CC2
0.141,–,–,COc1cc2c(cc1OC)CN(CCc1ccc(NC(=O)c3ccc(Cl)cc3NC(=O)c3cnc4ccccc4c3)cc1)CC2
0.087,0.03,–,COc1cc2c(cc1OC)CN(CCc1ccc(NC(=O)c3ccccc3NC(=O)c3cnc4ccccc4c3)cc1)CC2
0.06,0.027,–,COc1cc2c(cc1OC)CN(CCc1ccc(NC(=O)c3cc(F)ccc3NC(=O)c3cnc4ccccc4c3)cc1)CC2
0.045,–,–,COc1cc2c(cc1OC)CN(CCc1ccc(NC(=O)c3ccc([N+](=O)[O-])cc3NC(=O)c3cnc4ccccc4c3)cc1)CC2
0.067,–,–,COc1cc2c(cc1OC)CN(CCc1ccc(NC(=O)c3ccccc3NC(=O)c3ccc(C)nc3)cc1)CC2
0.149,–,–,COc1cc2c(cc1OC)CN(CCc1ccc(NC(=O)c3cc(Cl)ccc3NC(=O)c3cnc4ccccc4c3)cc1)CC2
